Measurements: ChEMBL document CHEMBL1157744, “Small molecule antagonist of leukocyte function associated antigen-1 (LFA-1): structure-activity relationships leading to the identification of 6-((5S,9R)-9-(4-cyanophenyl)-3-(3,5-dichlorophenyl)-1-methyl-2,4-dioxo-1,3,7-triazaspiro[4.4]nonan-7-yl)nicotinic acid (BMS-688521)” (J Med Chem, 2010)
Activity calls are given as the source filed them. No cut-off for these calls is given here.

What was measured:
[1] = in vivo; conditions: rat, iv, 1 mg/kg
[2] = species: Mus musculus; conditions: BALB/c, 1 mg/kg
[3] = target: Integrin alpha-M (Homo sapiens) (UniProt P11215); conditions: THP-1, 10 uM
[4] = species: Canis familiaris; conditions: dog, in vivo, po, 5 mg/kg
[5] = in vivo; conditions: mouse, iv, 1 mg/kg
[6] = in vivo; conditions: dog, iv, 1 mg/kg
[7] = in vitro; conditions: human, Caco-2
[8] = in vivo; conditions: dog, iv, 1 mg/kg; remark: listed apart in the source
[9] = in vivo; conditions: dog, iv, 1 mg/kg; remark: listed apart in the source
[10] = in vivo; conditions: mouse, po, 5 mg/kg
[11] = in vivo; conditions: rat, iv, 1 mg/kg; remark: listed apart in the source
[12] = target: T1, Integrin alpha-2/beta-3 (Homo sapiens) (UniProt P05106+P17301); conditions: 30 uM
[13] = in vitro; conditions: Purkinje fibers
[14] = in vivo; conditions: mouse, plasma, po, 5 mg/kg
[15] = in vivo; conditions: dog, po, 5 mg/kg
[16] = target: Integrin alpha-4/beta-1 (Homo sapiens) (UniProt P05556+P13612); conditions: Jurkat, 10 uM
[17] = in vivo; conditions: dog, plasma, po, 5 mg/kg
[18] = in vivo; conditions: rat, po, 5 mg/kg
[19] = species: Rattus norvegicus; conditions: in vivo, po, 5 mg/kg
[20] = species: Mus musculus; conditions: in vivo, po, 5 mg/kg
[21] = in vitro; conditions: human, serum
[22] = target: hERG (KCNH2) (Homo sapiens, UniProt Q12809); test: in vitro
Chain of hERG (KCNH2) (Q12809 whole entry): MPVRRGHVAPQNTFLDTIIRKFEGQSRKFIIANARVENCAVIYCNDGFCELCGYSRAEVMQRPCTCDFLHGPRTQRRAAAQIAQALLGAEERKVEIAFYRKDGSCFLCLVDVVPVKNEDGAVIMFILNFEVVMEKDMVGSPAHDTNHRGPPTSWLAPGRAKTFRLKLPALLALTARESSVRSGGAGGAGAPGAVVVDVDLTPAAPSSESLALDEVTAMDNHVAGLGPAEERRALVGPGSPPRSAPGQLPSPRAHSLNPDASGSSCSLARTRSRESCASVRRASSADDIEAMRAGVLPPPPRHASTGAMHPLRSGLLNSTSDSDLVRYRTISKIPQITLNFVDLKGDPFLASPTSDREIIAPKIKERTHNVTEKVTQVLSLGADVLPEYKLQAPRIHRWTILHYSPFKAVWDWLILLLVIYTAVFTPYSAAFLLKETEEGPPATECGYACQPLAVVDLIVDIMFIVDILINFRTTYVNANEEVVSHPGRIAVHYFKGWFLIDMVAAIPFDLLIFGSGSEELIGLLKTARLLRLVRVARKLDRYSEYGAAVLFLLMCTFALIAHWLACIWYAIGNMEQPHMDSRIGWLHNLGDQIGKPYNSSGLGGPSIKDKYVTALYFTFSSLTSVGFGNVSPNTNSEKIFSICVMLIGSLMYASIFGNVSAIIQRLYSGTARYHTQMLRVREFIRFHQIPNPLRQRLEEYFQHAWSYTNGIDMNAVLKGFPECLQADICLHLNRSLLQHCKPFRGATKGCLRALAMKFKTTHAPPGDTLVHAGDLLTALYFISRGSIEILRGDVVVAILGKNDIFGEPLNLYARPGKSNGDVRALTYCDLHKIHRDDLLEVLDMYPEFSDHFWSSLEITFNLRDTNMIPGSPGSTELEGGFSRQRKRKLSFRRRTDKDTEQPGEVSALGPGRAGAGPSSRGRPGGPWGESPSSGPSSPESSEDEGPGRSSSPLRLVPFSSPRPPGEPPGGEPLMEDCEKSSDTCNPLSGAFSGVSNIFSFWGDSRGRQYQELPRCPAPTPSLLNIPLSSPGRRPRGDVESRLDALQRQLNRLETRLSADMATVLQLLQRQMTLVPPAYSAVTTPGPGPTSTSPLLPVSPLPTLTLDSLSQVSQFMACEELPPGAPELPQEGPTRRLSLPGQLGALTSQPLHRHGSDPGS

[23] = in vivo; conditions: rat, iv, 1 mg/kg; remark: listed apart in the source
[24] = in vivo; conditions: mouse, iv, 1 mg/kg; remark: listed apart in the source
[25] = species: Mus musculus; conditions: BALB/c, 3 to 10 mg/kg
[26] = in vivo; conditions: rat, po, 5 mg/kg; remark: listed apart in the source
[27] = target: T1, Integrin alpha-2/beta-3 (Homo sapiens); conditions: 30 uM; remark: listed apart in the source
[28] = in vivo; conditions: mouse, iv, 1 mg/kg; remark: listed apart in the source
[29] = in vivo; conditions: rat, plasma, po, 5 mg/kg
[30] = in vivo; conditions: dog, iv, 1 mg/kg; remark: listed apart in the source
[31] = in vivo; conditions: dog, po, 5 mg/kg; remark: listed apart in the source
[32] = in vivo; conditions: mouse, po, 5 mg/kg; remark: listed apart in the source
[33] = in vivo; conditions: rat, iv, 1 mg/kg; remark: listed apart in the source
[34] = in vivo; conditions: mouse, iv, 1 mg/kg; remark: listed apart in the source

## CN1C(=O)N(c2cc(Cl)cc(Cl)c2)C(=O)[C@]12CN(c1ccc(C(=O)O)cn1)C[C@H]2c1ccc(C#N)cc1
[1]
  clearance: 11 mL/min/kg
[2]
  inhibition: Active
[3]
  inhibition: 18%
[4]
  Tmax: 2.9 h
[5]
  clearance: 50 mL/min/kg
[6]
  half-life: 4.7 h
[7]
  Papp A→B: 14.8 ×10⁻⁶ cm/s
[8]
  clearance: 0.5 mL/min/kg
[9]
  Vd: 0.2 L/kg
[10]
  Cmax: 320 nM
[11]
  MRT: 3.5 h
[12]
  inhibition: 0%
[13]
  inhibition at 30 µM: < 5%
[14]
  AUC: 1.5 µM·h
[15]
  bioavailability: 48%
[16]
  inhibition: 0%
[17]
  AUC: 102 µM·h
[18]
  Cmax: 2300 nM
[19]
  Tmax: 1.7 h
[20]
  Tmax: 1 h
[21]
  fraction unbound: 0.05
[22]
  inhibition at 30 µM: 20%
[23]
  Vd: 2.3 L/kg
[24]
  MRT: 1.7 h
[25]
  inhibition: Dose-dependent effect
[26]
  bioavailability: 82%
[27]
  inhibition: 0%
[28]
  half-life: 1.6 h
[29]
  AUC: 13 µM·h
[30]
  MRT: 6.9 h
[31]
  Cmax: 22000 nM
[32]
  bioavailability: 50%
[33]
  half-life: 3.3 h
[34]
  Vd: 5.1 L/kg
